According to patent US20240239792A1, “MODULATORS OF BCL-2 OR BCL-2/BCL-XL AND USES THEREOF” (APPICINE THERAPEUTICS (HK) LIMITED, priority 2021, published 2024):

How the values were obtained:
BCL-2 = target: T1, BCL-2 (Homo sapiens, UniProt P10415); assay: HTRF BCL-2/BAK assay (Cisbio); format: binding; conditions: recombinant human Tag1-BCL-2 2 nM, Tag2-BAK 10 nM
T1 construct: purchased Cisbio 63ADK000CB01PEG
Protocol: (§1) Then the pre-mixed anti-Tag1-Eu^3+ and anti-tag2-XL665 were added to the plate and further incubated at room temperature for another 2 hours. The signals ([…]) were read on Envision 2104 instrument. The IC50 for each compound was derived from fitting the signal of 665/615 nM to the increasing compound concentration.
(§2) Using the above assays, the following compounds were tested.

DOHH2 cells = assay: CellTiter-Glo cell proliferation assay, DOHH2 cells; format: cell-based; conditions: Homo sapiens, DOHH-2, 72 hours
Outline: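 DOHH2 cells seeded in DMEM + 10% FBS, exposed to serially diluted compound for 72 h at 37 °C, 5% CO2. Viability read by CellTiter-Glo luminescence; GI50 calculated.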

BCL-XL = target: T2, BCL-XL (Homo sapiens, UniProt Q07817); assay: HTRF BCL-XL/BAK assay (Cisbio); format: binding; conditions: recombinant human Tag1-BCL-XL 2 nM, Tag2-BAK 5 nM
T2 construct: purchased Cisbio 63ADK000CB04PEG
Protocol: as §1, §2

T2 sequence (Q07817 whole entry): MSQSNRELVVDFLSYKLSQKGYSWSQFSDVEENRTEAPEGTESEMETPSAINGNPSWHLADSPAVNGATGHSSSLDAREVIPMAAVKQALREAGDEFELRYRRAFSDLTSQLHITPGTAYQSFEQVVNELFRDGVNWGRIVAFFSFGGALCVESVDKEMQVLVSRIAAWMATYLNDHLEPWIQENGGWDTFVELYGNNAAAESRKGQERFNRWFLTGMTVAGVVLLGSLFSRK
T1 sequence (P10415 whole entry): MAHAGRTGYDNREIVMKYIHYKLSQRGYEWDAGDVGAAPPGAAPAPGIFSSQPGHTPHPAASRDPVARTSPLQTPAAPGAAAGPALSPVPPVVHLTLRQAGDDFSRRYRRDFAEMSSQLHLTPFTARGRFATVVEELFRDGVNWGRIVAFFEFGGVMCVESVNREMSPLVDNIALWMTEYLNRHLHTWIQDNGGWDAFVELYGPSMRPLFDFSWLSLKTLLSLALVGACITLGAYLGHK

| SMILES | IC50 (BCL-2) [nM] | IC50 (BCL-XL) [nM] | GI50 (DOHH2 cells) [nM] |
| --- | --- | --- | --- |
| CN1CCc2ccccc2C(N2CCN(c3ccc(C(=O)NS(=O)(=O)c4ccc(NCC5CCOCC5)c([N+](=O)[O-])c4)c(Oc4cnc5[nH]ccc5c4)c3)CC2)C1=O (stereo not drawn) [Compound 45, 2-((1H-pyrrolo[2,3-b]pyridin-5-yl)oxy)-4-(4-(3-methyl-2-oxo-2,3,4,5-tetrahydro-1H-benzo[d]azepin-1-yl)piperazin-1-yl)-N-((3-nitro-4-(((tetrahydro-2H-pyran-4-yl)methyl)amino)phenyl)sulfonyl)benzamide] | < 20 | 200 to 2000 | 500 to 5000 |
| O=C(NS(=O)(=O)c1cccc([N+](=O)[O-])c1)c1ccc(N2CCN(C3CCCCc4ccccc43)CC2)cc1Oc1cnc2[nH]ccc2c1 (stereo not drawn) [Compound 5, 2-((1H-pyrrolo[2,3-b]pyridin-5-yl)oxy)-N-((3-nitrophenyl)sulfonyl)-4-(4-(6,7,8,9-tetrahydro-5H-benzo[7]annulen-5-yl)piperazin-1-yl)benzamide] | 20 to 200 | 200 to 2000 | 500 to 5000 |
| O=C(NS(=O)(=O)c1ccc(NCC2CCOCC2)c([N+](=O)[O-])c1)c1ccc(N2CCN(C3CCCCc4cc(Br)ccc43)CC2)cc1Oc1cnc2[nH]ccc2c1 (stereo not drawn) [Compound 23, 2-((1H-pyrrolo[2,3-b]pyridin-5-yl)oxy)-4-(4-(2-bromo-6,7,8,9-tetrahydro-5H-benzo[7]annulen-5-yl)piperazin-1-yl)-N-((3-nitro-4-(((tetrahydro-2H-pyran-4-yl)methyl)amino)phenyl)sulfonyl)benzamide] | 20 to 200 | 200 to 2000 | 500 to 5000 |
| O=C(NS(=O)(=O)c1ccc(NCC2CC3(COC3)C2)c([N+](=O)[O-])c1)c1ccc(N2CCN([C@@H]3CCCCc4c(Cl)cccc43)CC2)cc1Oc1cnc2[nH]ccc2c1 [Compound 72, (R)-2-((1H-pyrrolo[2,3-b]pyridin-5-yl)oxy)-N-((4-(((2-oxaspiro[3.3]heptan-6-yl)methyl)amino)-3-nitrophenyl)sulfonyl)-4-(4-(1-chloro-6,7,8,9-tetrahydro-5H-benzo[7]annulen-5-yl)piperazin-1-yl)benzamide] | < 20 | 20 to 200 | < 50 |
| Cc1cccc2c1CCCCC2N1CCN(c2ccc(C(=O)NS(=O)(=O)c3ccc(NCC4CCOCC4)c([N+](=O)[O-])c3)c(Oc3cnc4[nH]ccc4c3)c2)CC1 (stereo not drawn) [Compound 20, 2-((1H-pyrrolo[2,3-b]pyridin-5-yl)oxy)-4-(4-(1-methyl-6,7,8,9-tetrahydro-5H-benzo[7]annulen-5-yl)piperazin-1-yl)-N-((3-nitro-4-(((tetrahydro-2H-pyran-4-yl)methyl)amino)phenyl)sulfonyl)benzamide] | < 20 | 200 to 2000 | 50 to 500 |
| O=C(NS(=O)(=O)c1ccc(NCC2CCOCC2)c([N+](=O)[O-])c1)c1ccc(N2CCN(C3CCCCc4c(C5=CCCC5)cccc43)CC2)cc1Oc1cnc2[nH]ccc2c1 (stereo not drawn) [Compound 47, 2-((1H-pyrrolo[2,3-b]pyridin-5-yl)oxy)-4-(4-(1-(cyclopent-1-en-1-yl)-6,7,8,9-tetrahydro-5H-benzo[7]annulen-5-yl)piperazin-1-yl)-N-((3-nitro-4-(((tetrahydro-2H-pyran-4-yl)methyl)amino)phenyl)sulfonyl)benzamide] | 20 to 200 | > 2000 | > 5000 |
| O=C1CCC(N2CCN(c3ccc(C(=O)NS(=O)(=O)c4ccc(NCC5CCOCC5)c([N+](=O)[O-])c4)c(Oc4cnc5[nH]ccc5c4)c3)CC2)c2ccccc2N1 (stereo not drawn) [Compound 28, 2-((1H-pyrrolo[2,3-b]pyridin-5-yl)oxy)-N-((3-nitro-4-(((tetrahydro-2H-pyran-4-yl)methyl)amino)phenyl)sulfonyl)-4-(4-(2-oxo-2,3,4,5-tetrahydro-1H-benzo[b]azepin-5-yl)piperazin-1-yl)benzamide] | 20 to 200 | > 2000 | > 5000 |
| CC(=O)Nc1ccc2c(c1)C(N1CCN(c3ccc(C(=O)NS(=O)(=O)c4ccc(NCC5CCOCC5)c([N+](=O)[O-])c4)c(Oc4cnc5[nH]ccc5c4)c3)CC1)CCCC2 (stereo not drawn) [Compound 34, 2-((1H-pyrrolo[2,3-b]pyridin-5-yl)oxy)-4-(4-(3-acetamido-6,7,8,9-tetrahydro-5H-benzo[7]annulen-5-yl)piperazin-1-yl)-N-((3-nitro-4-(((tetrahydro-2H-pyran-4-yl)methyl)amino)phenyl)sulfonyl)benzamide] | < 20 | 200 to 2000 | 500 to 5000 |
| O=C(NS(=O)(=O)c1cccc([N+](=O)[O-])c1)c1ccc(N2CCN(C3CCCc4cccc(-c5ccc(Cl)cc5)c43)CC2)cc1Oc1cnc2[nH]ccc2c1 (stereo not drawn) [Compound 13, 2-((1H-pyrrolo[2,3-b]pyridin-5-yl)oxy)-4-(4-(8-(4-chlorophenyl)-1,2,3,4-tetrahydronaphthalen-1-yl)piperazin-1-yl)-N-((3-nitrophenyl)sulfonyl)benzamide] | 20 to 200 | 200 to 2000 | 500 to 5000 |
| CC(=O)N1CCN(CCNc2ccc(S(=O)(=O)NC(=O)c3ccc(N4CCN(C5CCCCc6c(Cl)cccc65)CC4)cc3Oc3cnc4[nH]ccc4c3)cc2[N+](=O)[O-])CC1 (stereo not drawn) [Compound 39, 2-((1H-pyrrolo[2,3-b]pyridin-5-yl)oxy)-N-((4-((2-(4-acetylpiperazin-1-yl)ethyl)amino)-3-nitrophenyl)sulfonyl)-4-(4-(1-chloro-6,7,8,9-tetrahydro-5H-benzo[7]annulen-5-yl)piperazin-1-yl)benzamide] | < 20 | 20 to 200 | < 50 |
| O=C(NS(=O)(=O)c1ccc(NCC2CCOCC2)c([N+](=O)[O-])c1)c1ccc(N2CCN(C3CCCCc4ccc([N+](=O)[O-])cc43)CC2)cc1Oc1cnc2[nH]ccc2c1 (stereo not drawn) [Compound 30, 2-((1H-pyrrolo[2,3-b]pyridin-5-yl)oxy)-N-((3-nitro-4-(((tetrahydro-2H-pyran-4-yl)methyl)amino)phenyl)sulfonyl)-4-(4-(3-nitro-6,7,8,9-tetrahydro-5H-benzo[7]annulen-5-yl)piperazin-1-yl)benzamide] | < 20 | 200 to 2000 | 500 to 5000 |

The next lines start with results.

| IC50 (BCL-2) [nM] | IC50 (BCL-XL) [nM] | SMILES | GI50 (DOHH2 cells) [nM] |
| --- | --- | --- | --- |
| < 20 | 20 to 200 | CC(C)C(=O)N1CCC2(CC1)CC(CNc1ccc(S(=O)(=O)NC(=O)c3ccc(N4CCN([C@@H]5CCCCc6c(Cl)cccc65)CC4)cc3Oc3cnc4[nH]ccc4c3)cc1[N+](=O)[O-])C2 [Compound 124, (R)-2-((1H-pyrrolo[2,3-b]pyridin-5-yl)oxy)-4-(4-(1-chloro-6,7,8,9-tetrahydro-5H-benzo[7]annulen-5-yl)piperazin-1-yl)-N-((4-(((7-isobutyryl-7-azaspiro[3.5]nonan-2-yl)methyl)amino)-3-nitrophenyl)sulfonyl)benzamide] | < 50 |
| < 20 | 20 to 200 | O=C(NS(=O)(=O)c1ccc(NCC2CCOCC2)c([N+](=O)[O-])c1)c1ccc(N2CCN([C@@H]3CCCCc4c(Cl)cc(F)cc43)CC2)cc1Oc1cnc2[nH]ccc2c1 [Compound 87, (R)-2-((1H-pyrrolo[2,3-b]pyridin-5-yl)oxy)-4-(4-(1-chloro-3-fluoro-6,7,8,9-tetrahydro-5H-benzo[7]annulen-5-yl)piperazin-1-yl)-N-((3-nitro-4-(((tetrahydro-2H-pyran-4-yl)methyl)amino)phenyl)sulfonyl)benzamide] | < 50 |
| < 20 | 20 to 200 | CC1(C)CC(CNc2ccc(S(=O)(=O)NC(=O)c3ccc(N4CCN([C@@H]5CCCCc6c(Cl)cccc65)CC4)cc3Oc3cnc4[nH]ccc4c3)cc2[N+](=O)[O-])CCO1 (stereo partly drawn) [Compound 102, 2-((1H-pyrrolo[2,3-b]pyridin-5-yl)oxy)-4-(4-((R)-1-chloro-6,7,8,9-tetrahydro-5H-benzo[7]annulen-5-yl)piperazin-1-yl)-N-((4-(((2,2-dimethyltetrahydro-2H-pyran-4-yl)methyl)amino)-3-nitrophenyl)sulfonyl)benzamide] | < 50 |
| < 20 | 20 to 200 | CC1(C)COCCC1CNc1ccc(S(=O)(=O)NC(=O)c2ccc(N3CCN([C@@H]4CCCCc5c(Cl)cccc54)CC3)cc2Oc2cnc3[nH]ccc3c2)cc1[N+](=O)[O-] (stereo partly drawn) [Compound 101, 2-((1H-pyrrolo[2,3-b]pyridin-5-yl)oxy)-4-(4-((R)-1-chloro-6,7,8,9-tetrahydro-5H-benzo[7]annulen-5-yl)piperazin-1-yl)-N-((4-(((3,3-dimethyltetrahydro-2H-pyran-4-yl)methyl)amino)-3-nitrophenyl)sulfonyl)benzamide] | < 50 |
| < 20 | < 20 | O=C(NS(=O)(=O)c1ccc(NCC2(O)CCN(C3COC3)CC2)c([N+](=O)[O-])c1)c1ccc(N2CCN([C@@H]3CCCCc4c(Cl)cc(F)cc43)CC2)cc1Oc1cnc2[nH]ccc2c1 [Compound 88, (R)-2-((1H-pyrrolo[2,3-b]pyridin-5-yl)oxy)-4-(4-(1-chloro-3-fluoro-6,7,8,9-tetrahydro-5H-benzo[7]annulen-5-yl)piperazin-1-yl)-N-((4-(((4-hydroxy-1-(oxetan-3-yl)piperidin-4-yl)methyl)amino)-3-nitrophenyl)sulfonyl)benzamide] | < 50 |
| 20 to 200 | 20 to 200 | NCCN1CCC2(CC1)CC(CNc1ccc(S(=O)(=O)NC(=O)c3ccc(N4CCN([C@@H]5CCCCc6c(Cl)cccc65)CC4)cc3)cc1[N+](=O)[O-])C2 [Compound 120, (R)-N-((4-(((7-(2-aminoethyl)-7-azaspiro[3.5]nonan-2-yl)methyl)amino)-3-nitrophenyl)sulfonyl)-4-(4-(1-chloro-6,7,8,9-tetrahydro-5H-benzo[7]annulen-5-yl)piperazin-1-yl)benzamide] | 500 to 5000 |
